From PubChem BioAssay AID179 (DTP/NCI, 2004)
Calls of active or inactive are those of the source.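 Rule for the calls: active = compounds giving half or more protection of infected cells from virus-caused growth loss, again on retest; inactive = the rest.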 Where a SMILES comes first, the peptide text is derived from it. Bridges are numbered along the chain shown (N, C = ends). [ ]: non-standard residue; d: D form. The star is where a group is joined. ξ: configuration not given here. PhAc = O=C(Cc1ccccc1)*; ξP = O=C(O)C1CCCN1

System: CEM cells HIV-1 protection, formazan growth assay
Assay: NCI AIDS Antiviral Assay
Conditions: for IC50: measured here: growth of uninfected CEM cells
In short: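 Human CEM cells, uninfected and HIV-1-infected, received five drug concentrations, and growth was read by soluble formazan assay. Compounds giving at least 50% protection were retested; reproducible 100% protection defined confirmed active.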

SMILES	EC50 [µM]	IC50 [µM]	outcome
C[CH2][Sn]([CH2]C)([S]CCS(=O)(=O)O)[S]CCS(=O)(=O)O	> 200	3.72	
C[C@]12C=CC(=O)C=C1[C@@H](F)C[C@H]1[C@@H]3CC[C@](O)(C(=O)CO)[C@@]3(C)C[C@H](O)[C@@]12F			inactive
COc1cc(C(=O)Nc2c3ccccc3nc3ccccc23)cc(OC)c1OC	> 200	> 200	
CC(/C=C/C(=O)c1sc(-n2nc(-c3ccccc3)cc2-c2ccccc2)nc1C)=C\c1ccccc1	> 27.5	> 27.5	
CC(=O)Oc1ccc2cc(Oc3ccc(Cl)c(Cl)c3)c(=O)oc2c1	> 200	85.1	
O=C1C(c2ccccc2)=C(O)c2cccc3cccc1c23	> 912	85.1	
O=C(O)O			inactive
CCC[CH2][Sn]([CH2]CCC)([O]C(=O)c1cccc(F)c1F)[O]C(=O)c1cccc(F)c1F	> 9.55	3.55	
Brc1c2c(c(Br)c3nsnc13)N=S=N2			inactive
COC1=C(C)C(=O)c2nc(Cl)ccc2C1=O			inactive
CCCN1C(=O)CN(S(=O)(=O)c2ccc(Cl)cc2)C1=O	> 200	> 200	
CNCCCNCCCSP(=O)(O)O	> 195	191	
COc1cc2c(c(OC)c1)C(C)=NC(C)C2 (stereo unspecified)	> 200	141	
CCc1cccc(C(C)CC)c1NC(=O)C(=O)Cc1nc2ccccc2o1 (stereo unspecified)	> 347	> 347	
O=c1cc2cc(O)[nH]c(=O)c2c(O)[nH]1			inactive
c1ccc2c(c1)cc(C1NCCc3[nH]cnc31)c1ccccc12 (stereo unspecified)	> 24	15.1	
COc1cc(-c2cc(-c3cc([N+](=O)[O-])c(/C=N/NC(=O)c4ccncc4)o3)ccc2OC)ccc1C	> 269	55	
N#CC1=C(O)NC(O)=C(C#N)C12C(=O)Nc1ccccc12	> 794	> 794	
O=C(O)c1cc(Cl)cc(NC(=O)C(Cl)Cl)c1Cl	> 794	617	
O=C1c2c(Br)sc(Br)c2[C@@H](NC(=O)C(F)(F)F)C1Br (stereo partly specified)	> 200	3.8	
CC(NC(=O)c1ccccc1)C(=O)N(Cc1ccccc1)Cc1ccccc1 (stereo unspecified)	> 97.7	> 97.7	
Cc1nc(-c2ccccc2)cc2c1c(=O)oc1ccccc12	> 5.01	> 5.01	
C/C(=C1/N=C(c2cc([N+](=O)[O-])ccc2Cl)N(c2ccc(Br)cc2)C1=O)c1cc2ccccc2oc1=O	> 24		

SMILES	EC50 [µM]	IC50 [µM]	outcome
O=C1CC(c2ccc(O)cc2)C2(O1)C(=O)OC1C(O)COC12O (stereo unspecified)			inactive
CC(=O)OCC1OC(N2C(=O)NC(=O)C3C=C4CCCCC4=CC32)CC1OC(C)=O (stereo unspecified)	> 200	117	
COC(=O)Nc1nc2cc(OC)c(OC)cc2c(=O)[nH]1	> 200	8.71	
COC1/C=C/OC2(C)Oc3c(C)c(O)c4c(O)c(c(/C=N/N5CCOCC5)c(O)c4c3C2=O)NC(=O)C(C)=C/C=C\C(C)C(O)C(C)C(O)C(C)C(O)C1C (stereo unspecified)	> 126	72.4	
O=C1NCN(C2CCCCC2)CN1	> 200	> 200	
CC1(C)N=C(/C=N/O)C(C)(C)N1O	> 200	> 200	
O=C(O)/C(Cl)=C(/Cl)C(=O)Nc1cc(Cl)ccc1Cl			inactive
c1ccc2c(c1)ncn2CCn1ccnc1	> 200	> 200	
O=C(Cc1ccccc1)N[C@@H]1COC(=O)C2CCCN2C(=O)[C@@H]2CCCN2C1=O (stereo partly specified) (PhAc-[dS]-Pro-[ξP]; ester 1-C)	> 200	> 200	
O=S(=O)(O)c1c(Cl)c(Cl)c(O)c2ncccc12	> 200	1.17	
CCOC(=O)NNC(=O)NC12CC3CC(CC(C3)C1)C2			inactive
c1ccc(C2OCC(OC3CCCCO3)CO2)cc1 (stereo unspecified)	> 200	> 200	
O=C(CSc1nc(-c2ccccc2)c(-c2ccccc2)[nH]1)N/N=C/c1ccc(Cl)cc1	> 20.9	12	
CCC(=O)c1c(NOC2OC(COC(C)=O)C(OC(C)=O)C(OC(C)=O)C2OC(C)=O)nc(OC)n(C)c1=O (stereo unspecified)	> 46.8	> 46.8	
CCOC(=O)c1nnsc1NC(=O)Nc1ccc(Cc2ccc(NC(=O)Nc3snnc3C(=O)OCC)cc2)cc1	> 200	> 200	
Cc1c(N=O)c(=O)n(-c2ccccc2)n1C			inactive
CN(/N=C/c1ccc(Cl)c(Cl)c1)C1=NCCN1	> 200	16.2	
CC1(C2COC(=O)C2)SCCCS1 (stereo unspecified)	> 100	60.3	
Cn1c2c(c3ccccc31)C1CCCCCCC1C1C(=O)OC(=O)C21 (stereo unspecified)			inactive
CC1(C)O[C@@H]2[C@@H]3OC(=O)C[C@@H]3[C@@H](COCc3ccccc3)[C@@H]2O1	> 200	> 200	
NC1=NC(=O)C(c2ccccc2)S1 (stereo unspecified)	> 676	> 676	
CCOC(=O)C(/C=N\C(=S)Nc1ccc(OCC)cc1)=C(/O)c1ccccc1	> 200	> 200	
O=c1[nH]c2cc(Cl)ccc2nc1/C(=N\Nc1ccccc1)C(O)c1ccc2c(c1)OCO2 (stereo unspecified)	> 209	> 209	
